Data taken from patent US20210290676A1, “IMPROVING THE EFFICACY AND SAFETY OF ADOPTIVE CELLULAR THERAPIES” (University of Southern California, priority 2018, published 2021).

Key:
Assay type in all cases: cell-based, human
[1] = system: Pgp+ (DiOC2(3)-dye effluxing) T cells; assay: DiOC2(3) dye efflux flow cytometry of inhibitor-treated T cells
Protocol: (§1) The use of P-glycoprotein (Pgp)-mediated efflux of DiOC2(3) to isolate stem like T cells for adoptive cellular therapy has been described in application no. […] In the following examples, DiOC2(3) staining was used to study the effect of different inhibitors on generation of stem like T cells.
(§2) DAY 0: Blood was obtained from unidentified donor. After RBC lysis, PBMC were collected using Ficoll-Hypaque separation. […] T cells were cultured in three different conditions: • 1. XVIVO 15 medium (Lonza) with IL2 50 IU/ml, CD3 antibody (30 ng/ml) and CD28 antibody (30 ng/ml). • 2. XVIVO 15 medium (Lonza) with CD3 antibody (30 ng/ml) and CD28 antibody (30 ng/ml). • 3. XVIVO 15 medium (Lonza) with IL2 50 IU/ml DAY 1: Cells were plated in a 6-well plate at a density of 1 million cells in 2 ml/of media (as described above) and treated with different inhibitors
(§3) The cell growth medium was changed in 6-well plates and fresh drugs were added at same concentration for one more week.
(§4) […] (DAY 11): Culture medium was changed and fresh drugs were added in 6-well plates.
(§5) Subsequently, cells were washed with RPMI medium and dye was effluxed at 37° C. for 90 min. Cells were washed with […], stained with CD62L-APC (5 μl/100 μl/sample) at 4° C. for 1 h, washed twice with PBS+1% FBS and analyzed on flow cytometer to check if these drugs treatment leads to increase in Pgp+/CD62L positive population.
(§6) Day 0: Blood was obtained from unidentified donor. After RBC lysis, PBMC were collected using Ficoll-Hypaque separation. 200 million T cells were isolated from PBMCs using CD3 microbeads. T cells were cultured overnight in XVIVO 15 medium (Lonza) with IL2 (50 IU/ml), 30 ng/ml of CD3 and CD28 antibodies
(§7) Day 1: Cells were plated in 24-well plates at a density of 0.3 million cells/ml in each well and treated with different drugs.
(§8) On day 7, culture medium was replaced with fresh medium with fresh drugs.
(§9) On day 13, culture medium was replaced with fresh medium and fresh drugs. Half of the cells were transferred to 6-well plates.
(§10) Day 14: An aliquot of cells with all the treatments listed above (for 13 days) was used to stain the cells with DiOC2(3) (60 ng/ml in RPMI medium) at 4° C. for 40 min, washed with RPMI medium, DiOC2(3) dye was effluxed at 37° C. for 90 min, washed with PBS+1% FBS, stained with CD62L-APC antibody. CD62L is a marker for resting T cells. (5 μl/100 μl/sample) at 4° C. for 1 h, washed twice with PBS+1% FBS and analyzed on flow cytometer to check if these drugs are affecting the dye-effluxing or Pgp+ (i.e., DiOC2(3)-dull) T-cell population.

[2] = system: Pgp+ (DiOC2(3)-dye effluxing cells) and CD62L+ T cells; assay: DiOC2(3) dye efflux plus CD62L-APC staining, flow cytometry of inhibitor-treated T cells
Protocol: as §1, §2, §3, §4, §5, §6, §7, §8, §9, §10

[3] = system: CD8+CD45RA+CCR7+CD62L+ T cells; assay: Flow cytometry for CD8, CD45RA, CCR7 and CD62L on inhibitor-treated T cells; conditions: 13 days of treatment
Protocol: as §2
(§11) A second aliquot of the cells cultured for 13 days with all the treatments listed above (1-21) was washed with PBS+1% FBS, stained with CD8-PerCP, CD45RA-FITC, CCR7-PE and CD62L-APC (5% Y/100 μl/sample for each of 4 antibodies) at 4° C. for 1 h, washed twice with PBS+100 FBS and analyzed on flow cytometer to check if these drugs are enriching T stem cells showing surface expression of CD8+CD45RA+CCR7+CD62L+.
as §6, §7, §8, §9
as §11, with “14” for “13”, “above” for “above (1-21)”, “(5 ul/100 ul/sample” for “(5% Y/100 μl/sample”, “PBS+1%” for “PBS+100”, “enriching for” for “enriching”, “T” for “T stem”

[4] = system: CD45RA+CCR7+CD62L+ T cells; assay: Flow cytometry for CD45RA, CCR7 and CD62L on inhibitor-treated T cells (all T cells); conditions: 13 days treatment
Protocol: as §2, §11, §6, §7, §8, §9
as §11, with “14” for “13”, “above” for “above (1-21)”, “(5 ul/100 ul/sample” for “(5% Y/100 μl/sample”, “PBS+1%” for “PBS+100”, “enriching for” for “enriching”, “T” for “T stem”

[5] = culture with CD3 antibody, CD28 antibody and IL2, 6 days of treatment, 500 nM
[6] = CD3-CD28-IL2 culture, inhibitor 100 nM
[7] = CD3-CD28-IL2 culture, inhibitor 500 nM
[8] = CD3-CD28-IL2 culture, inhibitor 1 μM
[9] = CD3-CD28 culture, inhibitor 100 nM
[10] = CD3-CD28 culture, inhibitor 500 nM
[11] = CD3-CD28 culture, inhibitor 1 μM
[12] = CD3-IL2 culture, inhibitor 100 nM
[13] = CD3-IL2 culture, inhibitor 500 nM
[14] = CD3-IL2 culture, inhibitor 1 μM

CCCc1cc(C)[nH]c(=O)c1CNC(=O)c1cc(-c2ccnc(N3CCN(C)CC3)c2)cc2c1cnn2C(C)C [GSK343]
% of Pgp+ cells out of live cells ([1]; CD3-CD28-IL2 culture, inhibitor 100 nM, 6 days of treatment): 23.29%
% of Pgp+ cells out of live cells ([1]; CD3-CD28-IL2 culture, inhibitor 100 nM, 13 days of treatment): 27.15%
% of Pgp+ cells out of live cells ([1]; CD3-CD28-IL2 culture, inhibitor 500 nM, 6 days of treatment): 30.62%
% of Pgp+ cells out of live cells ([1]; CD3-CD28-IL2 culture, inhibitor 500 nM, 13 days of treatment): 18.00%
% of Pgp+ cells out of live cells ([1]; CD3-CD28-IL2 culture, inhibitor 1 μM, 6 days of treatment): 28.03%
% of Pgp+ cells out of live cells ([1]; CD3-CD28-IL2 culture, inhibitor 1 μM, 13 days of treatment): 23.42%
% of Pgp+ cells out of live cells ([1]; CD3-CD28 culture, inhibitor 100 nM, 6 days of treatment): 48.43%
% of Pgp+ cells out of live cells ([1]; CD3-CD28 culture, inhibitor 100 nM, 13 days of treatment): 11.66%
% of Pgp+ cells out of live cells ([1]; CD3-CD28 culture, inhibitor 500 nM, 6 days of treatment): 47.09%
% of Pgp+ cells out of live cells ([1]; CD3-CD28 culture, inhibitor 500 nM, 13 days of treatment): 10.34%
% of Pgp+ cells out of live cells ([1]; CD3-CD28 culture, inhibitor 1 μM, 6 days of treatment): 46.26%
% of Pgp+ cells out of live cells ([1]; CD3-CD28 culture, inhibitor 1 μM, 13 days of treatment): 9.43%
% of Pgp+ cells out of live cells ([1]; CD3-IL2 culture, inhibitor 100 nM, 6 days of treatment): 25.49%
% of Pgp+ cells out of live cells ([1]; CD3-IL2 culture, inhibitor 100 nM, 13 days of treatment): 20.31%
% of Pgp+ cells out of live cells ([1]; CD3-IL2 culture, inhibitor 500 nM, 6 days of treatment): 25.21%
% of Pgp+ cells out of live cells ([1]; CD3-IL2 culture, inhibitor 500 nM, 13 days of treatment): 23.54%
% of Pgp+ cells out of live cells ([1]; CD3-IL2 culture, inhibitor 1 μM, 6 days of treatment): 28.31%
% of Pgp+ cells out of live cells ([1]; CD3-IL2 culture, inhibitor 1 μM, 13 days of treatment): 17.50%
percentage of Pgp+ cells [1, 5]: 30.62%
% of Pgp+ CD62L+cells out of live cells ([2]; CD3-CD28-IL2 culture, inhibitor 100 nM, 6 days treatment): 8.57%
% of Pgp+ CD62L+cells out of live cells ([2]; CD3-CD28-IL2 culture, inhibitor 100 nM, 13 days treatment): 7.96%
% of Pgp+ CD62L+cells out of live cells ([2]; CD3-CD28-IL2 culture, inhibitor 500 nM, 6 days treatment): 13.33%
% of Pgp+ CD62L+cells out of live cells ([2]; CD3-CD28-IL2 culture, inhibitor 500 nM, 13 days treatment): 4.79%
% of Pgp+ CD62L+cells out of live cells ([2]; CD3-CD28-IL2 culture, inhibitor 1 μM, 6 days treatment): 12.05%
% of Pgp+ CD62L+cells out of live cells ([2]; CD3-CD28-IL2 culture, inhibitor 1 μM, 13 days treatment): 5.75%
% of Pgp+ CD62L+cells out of live cells ([2]; CD3-CD28 culture, inhibitor 100 nM, 6 days treatment): 23.35%
% of Pgp+ CD62L+cells out of live cells ([2]; CD3-CD28 culture, inhibitor 100 nM, 13 days treatment): 2.50%
% of Pgp+ CD62L+cells out of live cells ([2]; CD3-CD28 culture, inhibitor 500 nM, 6 days treatment): 24.79%
% of Pgp+ CD62L+cells out of live cells ([2]; CD3-CD28 culture, inhibitor 500 nM, 13 days treatment): 2.12%
% of Pgp+ CD62L+cells out of live cells ([2]; CD3-CD28 culture, inhibitor 1 μM, 6 days treatment): 23.41%
% of Pgp+ CD62L+cells out of live cells ([2]; CD3-CD28 culture, inhibitor 1 μM, 13 days treatment): 2.28%
% of Pgp+ CD62L+cells out of live cells ([2]; CD3-IL2 culture, inhibitor 100 nM, 6 days treatment): 8.62%
% of Pgp+ CD62L+cells out of live cells ([2]; CD3-IL2 culture, inhibitor 100 nM, 13 days treatment): 5.24%
% of Pgp+ CD62L+cells out of live cells ([2]; CD3-IL2 culture, inhibitor 500 nM, 6 days treatment): 9.32%
% of Pgp+ CD62L+cells out of live cells ([2]; CD3-IL2 culture, inhibitor 500 nM, 13 days treatment): 6.82%
% of Pgp+ CD62L+cells out of live cells ([2]; CD3-IL2 culture, inhibitor 1 μM, 6 days treatment): 10.99%
% of Pgp+ CD62L+cells out of live cells ([2]; CD3-IL2 culture, inhibitor 1 μM, 13 days treatment): 5.17%
percentage of Pgp+CD62L+ cells [2, 5]: 13.33%
% of CD62L+CCR7+ double positive cells out of CD45RA+ cells in CD8+ T cell population [3, 6]: 82.96%
% of CD62L+CCR7+ double positive cells out of CD45RA+ cells in CD8+ T cell population [3, 7]: 82.42%
% of CD62L+CCR7+ double positive cells out of CD45RA+ cells in CD8+ T cell population [3, 8]: 85.00%
% of CD62L+CCR7+ double positive cells out of CD45RA+ cells in CD8+ T cell population [3, 9]: 85.28%
% of CD62L+CCR7+ double positive cells out of CD45RA+ cells in CD8+ T cell population [3, 10]: 80.34%
% of CD62L+CCR7+ double positive cells out of CD45RA+ cells in CD8+ T cell population [3, 11]: 85.70%
% of CD62L+CCR7+ double positive cells out of CD45RA+ cells in CD8+ T cell population [3, 12]: 73.95%
% of CD62L+CCR7+ double positive cells out of CD45RA+ cells in CD8+ T cell population [3, 13]: 77.29%
% of CD62L+CCR7+ double positive cells out of CD45RA+ cells in CD8+ T cell population [3, 14]: 81.47%
% of CD62L+CCR7+ double positive cells out of CD45RA+ cells in live T cell population [4, 6]: 66.40%
% of CD62L+CCR7+ double positive cells out of CD45RA+ cells in live T cell population [4, 7]: 64.47%
% of CD62L+CCR7+ double positive cells out of CD45RA+ cells in live T cell population [4, 8]: 67.37%
% of CD62L+CCR7+ double positive cells out of CD45RA+ cells in live T cell population [4, 9]: 75.26%
% of CD62L+CCR7+ double positive cells out of CD45RA+ cells in live T cell population [4, 10]: 67.97%
% of CD62L+CCR7+ double positive cells out of CD45RA+ cells in live T cell population [4, 11]: 76.18%
% of CD62L+CCR7+ double positive cells out of CD45RA+ cells in live T cell population [4, 12]: 58.51%
% of CD62L+CCR7+ double positive cells out of CD45RA+ cells in live T cell population [4, 13]: 61.18%
% of CD62L+CCR7+ double positive cells out of CD45RA+ cells in live T cell population [4, 14]: 61.06%
